Test results reported in patent US4892885A, “Esters of (triarylphosphoranylidene)carbamic acid for effecting diuresis” (American Cyanamid Company, priority 1988, dated 1990).

Experiments:
[1] = system: Spontaneously Hypertensive Rats; test: Diuretic activity in spontaneously hypertensive rats (0-5 hour urine); assay type: in vivo, Male spontaneously hypertensive rats (SHR) of Okamoto strain; conditions: 100 mg/kg by gavage, sodium chloride loading, SHR
Procedure: The diuretic activity of the compounds of this invention was also determined according to the method of Chan, P. S. and Poorvin, D., "Sequential method for combined screening antihypertensive and diuretic agents in the same spontaneously hypertensive rat." Clinical and Experimental Hypertension, 1(6), 817-830 (1979). Male spontaneously hypertensive rats (SHR) of Okamoto strain, 16 weeks old, Taconic Farms Inc. were used in the test. These rats were kept on Purina laboratory chow and tap water ad libitum for 8 weeks before use. One male adult rat (about 300 g) was dosed by gavage with a test compound at 100 mg/kg together with 0.9 sodium chloride loading at […] at zero hour. The tese compound was suspended in 3% preboiled starch at 50 mg/ml. The rat was put in a metabolism cage. The 0-5 hour urine was collected and urinary sodium and potassium were determined using a Beckman Astra 4.

plasma renin activity = test: Inhibition of evoked (drug-induced) increase of plasma renin activity (PRA) in conscious rats; assay type: in vivo; conditions: 25 mg/kg oral, 30 minutes prior to hydrochlorothiazide (10 mg/kg) + ACE inhibitor (1 mg/kg) provocative treatment; male Wistar rats; number of rats in parentheses
Procedure: Inhibition of evoked increase of plasma renin activity was determined by the following test.
Compounds were tested for their ability to prevent drug-induced elevation of plasma renin activity (PRA) in conscious, male Wistar rats (180-200 g, Charles River Lab.). PRA elevation was induced by a combined oral provocative treatment (C) of hydrochlorothiazide (10 mg/kg) and 1-(3-benzoyl-3-mercapto-2-methylpropionyl)-L-proline, acetate (U.S. Pat. No. 4,226,775) (one mg/kg), prepared by compounding in a mortar and pestle with preboiled 3% starch suspension. This treatment provided the daily maximum PRA. The daily minimum PRA was obtained from rats given oral starch suspension (S) alone. The magnitude of drug effect on PRA elevation was ascertained from rats pretreated orally with test agent (D), at the indicated doeses, 30 minutes prior to administration of provocative treatment (C). The test agent was also compounded in preboiled 3% starch suspension. The dose volumes for both pretreatment and provocative treatment were 2 ml/kg. One hour after provocative treatment the rats were sacrificed by decapitation and the first 3 seconds of blood collected in two chilled vacutainer tubes containing […] of 150 mg/ml tripotassium EDTA. […]
PRA is calculated as follows: PRA ([…])=PRA 37° C.-PRA 4° C.
Percent inhibition of PRA elevation is calculated as follows: [formula]

SMILES | Potassium (urinary) [1] | Sodium (urinary) [1] | Volume (urine) [1] | Percent Inhibition of Plasma Renin Elevation, Average % Inhibition (No. of rats) (plasma renin activity)
CCOC(=O)N=P(c1ccccc1)(c1ccccc1)c1ccccc1CN1CCCCC1 [[Diphenyl[2-(1-piperidinylmethyl)phenyl]phosphoranylidene]carbamic acid, ethyl ester] | 0.37 MEQ/5 Hours | 1.92 MEQ/5 Hours | 18.8 mL | –
CCOC(=O)N=P(c1ccccc1)(c1ccccc1)c1ccccc1CN(CC)CC [[[[2-(Diethylamino)methyl]phenyl]diphenylphosphoranylidene]carbamic acid, ethyl ester] | 0.48 MEQ/5 Hours | 2.46 MEQ/5 Hours | 23.3 mL | –
CCOC(=O)N=P(c1ccccc1)(c1ccccc1)c1ccccc1CN(C)C [[[2-[(Dimethylamino)methyl]phenyl]diphenylphosphoranylidene]carbamic acid, ethyl ester] | 0.67 MEQ/5 Hours | 1.47 MEQ/5 Hours | 15.5 mL | 16%
CCCN(CCC)Cc1ccccc1P(=NC(=O)OCC)(c1ccccc1)c1ccccc1 [[[2-[(Dipropylamino)methyl]phenyl]diphenylphosphoranylidene]carbamic acid, ethyl ester] | 0.40 MEQ/5 Hours | 1.41 MEQ/5 Hours | 22.0 mL | –
CCOC(=O)N=P(c1ccccc1)(c1ccccc1)c1ccccc1CN1CCCC1 [[Diphenyl[2-(1-pyrrolidinylmethyl)phenyl]phosphoranylidene]carbamic acid, ethyl ester] | 0.56 MEQ/5 Hours | 1.36 MEQ/5 Hours | 12.0 mL | –
CCOC(=O)N=P(c1ccccc1)(c1ccccc1)c1ccccc1CNC.Cl [[[2-[(Methylamino)methyl]phenyl]diphenylphosphoranylidene]carbamic acid, ethyl ester, monohydrochloride] | 0.51 MEQ/5 Hours | 1.66 MEQ/5 Hours | 17.5 mL | –
COC(=O)N=P(c1ccccc1)(c1ccccc1)c1ccccc1CN(C)C [[[2-[(Dimethylamino)methyl]phenyl]diphenylphosphoranylidene]carbamic acid, methyl ester] | 0.83 MEQ/5 Hours | 1.62 MEQ/5 Hours | 19.5 mL | 77%
